Measured values: US8987216B2, “Polysulfated glycosides and salts thereof” (Teva Hungary Pharmaceutical Marketing Private Limited …, priority 2004, dated 2015)
Structures can show the parent of a compound that is named as a salt. Where two headings read alike, the source gives them in different places.

What was measured:
[1] = molecular target: T1, IP-3 receptor (Rattus norvegicus, UniProt P29994); assay: IP-3 receptor antagonistic effect: inhibition of IP3 binding to its receptor in rat cerebellum membrane preparations
T1 construct: determined using rat cerebellum membrane preparations; from tissue; host or cells: rat cerebellum (microsomal membrane preparation)
T1 sequence (P29994 whole entry): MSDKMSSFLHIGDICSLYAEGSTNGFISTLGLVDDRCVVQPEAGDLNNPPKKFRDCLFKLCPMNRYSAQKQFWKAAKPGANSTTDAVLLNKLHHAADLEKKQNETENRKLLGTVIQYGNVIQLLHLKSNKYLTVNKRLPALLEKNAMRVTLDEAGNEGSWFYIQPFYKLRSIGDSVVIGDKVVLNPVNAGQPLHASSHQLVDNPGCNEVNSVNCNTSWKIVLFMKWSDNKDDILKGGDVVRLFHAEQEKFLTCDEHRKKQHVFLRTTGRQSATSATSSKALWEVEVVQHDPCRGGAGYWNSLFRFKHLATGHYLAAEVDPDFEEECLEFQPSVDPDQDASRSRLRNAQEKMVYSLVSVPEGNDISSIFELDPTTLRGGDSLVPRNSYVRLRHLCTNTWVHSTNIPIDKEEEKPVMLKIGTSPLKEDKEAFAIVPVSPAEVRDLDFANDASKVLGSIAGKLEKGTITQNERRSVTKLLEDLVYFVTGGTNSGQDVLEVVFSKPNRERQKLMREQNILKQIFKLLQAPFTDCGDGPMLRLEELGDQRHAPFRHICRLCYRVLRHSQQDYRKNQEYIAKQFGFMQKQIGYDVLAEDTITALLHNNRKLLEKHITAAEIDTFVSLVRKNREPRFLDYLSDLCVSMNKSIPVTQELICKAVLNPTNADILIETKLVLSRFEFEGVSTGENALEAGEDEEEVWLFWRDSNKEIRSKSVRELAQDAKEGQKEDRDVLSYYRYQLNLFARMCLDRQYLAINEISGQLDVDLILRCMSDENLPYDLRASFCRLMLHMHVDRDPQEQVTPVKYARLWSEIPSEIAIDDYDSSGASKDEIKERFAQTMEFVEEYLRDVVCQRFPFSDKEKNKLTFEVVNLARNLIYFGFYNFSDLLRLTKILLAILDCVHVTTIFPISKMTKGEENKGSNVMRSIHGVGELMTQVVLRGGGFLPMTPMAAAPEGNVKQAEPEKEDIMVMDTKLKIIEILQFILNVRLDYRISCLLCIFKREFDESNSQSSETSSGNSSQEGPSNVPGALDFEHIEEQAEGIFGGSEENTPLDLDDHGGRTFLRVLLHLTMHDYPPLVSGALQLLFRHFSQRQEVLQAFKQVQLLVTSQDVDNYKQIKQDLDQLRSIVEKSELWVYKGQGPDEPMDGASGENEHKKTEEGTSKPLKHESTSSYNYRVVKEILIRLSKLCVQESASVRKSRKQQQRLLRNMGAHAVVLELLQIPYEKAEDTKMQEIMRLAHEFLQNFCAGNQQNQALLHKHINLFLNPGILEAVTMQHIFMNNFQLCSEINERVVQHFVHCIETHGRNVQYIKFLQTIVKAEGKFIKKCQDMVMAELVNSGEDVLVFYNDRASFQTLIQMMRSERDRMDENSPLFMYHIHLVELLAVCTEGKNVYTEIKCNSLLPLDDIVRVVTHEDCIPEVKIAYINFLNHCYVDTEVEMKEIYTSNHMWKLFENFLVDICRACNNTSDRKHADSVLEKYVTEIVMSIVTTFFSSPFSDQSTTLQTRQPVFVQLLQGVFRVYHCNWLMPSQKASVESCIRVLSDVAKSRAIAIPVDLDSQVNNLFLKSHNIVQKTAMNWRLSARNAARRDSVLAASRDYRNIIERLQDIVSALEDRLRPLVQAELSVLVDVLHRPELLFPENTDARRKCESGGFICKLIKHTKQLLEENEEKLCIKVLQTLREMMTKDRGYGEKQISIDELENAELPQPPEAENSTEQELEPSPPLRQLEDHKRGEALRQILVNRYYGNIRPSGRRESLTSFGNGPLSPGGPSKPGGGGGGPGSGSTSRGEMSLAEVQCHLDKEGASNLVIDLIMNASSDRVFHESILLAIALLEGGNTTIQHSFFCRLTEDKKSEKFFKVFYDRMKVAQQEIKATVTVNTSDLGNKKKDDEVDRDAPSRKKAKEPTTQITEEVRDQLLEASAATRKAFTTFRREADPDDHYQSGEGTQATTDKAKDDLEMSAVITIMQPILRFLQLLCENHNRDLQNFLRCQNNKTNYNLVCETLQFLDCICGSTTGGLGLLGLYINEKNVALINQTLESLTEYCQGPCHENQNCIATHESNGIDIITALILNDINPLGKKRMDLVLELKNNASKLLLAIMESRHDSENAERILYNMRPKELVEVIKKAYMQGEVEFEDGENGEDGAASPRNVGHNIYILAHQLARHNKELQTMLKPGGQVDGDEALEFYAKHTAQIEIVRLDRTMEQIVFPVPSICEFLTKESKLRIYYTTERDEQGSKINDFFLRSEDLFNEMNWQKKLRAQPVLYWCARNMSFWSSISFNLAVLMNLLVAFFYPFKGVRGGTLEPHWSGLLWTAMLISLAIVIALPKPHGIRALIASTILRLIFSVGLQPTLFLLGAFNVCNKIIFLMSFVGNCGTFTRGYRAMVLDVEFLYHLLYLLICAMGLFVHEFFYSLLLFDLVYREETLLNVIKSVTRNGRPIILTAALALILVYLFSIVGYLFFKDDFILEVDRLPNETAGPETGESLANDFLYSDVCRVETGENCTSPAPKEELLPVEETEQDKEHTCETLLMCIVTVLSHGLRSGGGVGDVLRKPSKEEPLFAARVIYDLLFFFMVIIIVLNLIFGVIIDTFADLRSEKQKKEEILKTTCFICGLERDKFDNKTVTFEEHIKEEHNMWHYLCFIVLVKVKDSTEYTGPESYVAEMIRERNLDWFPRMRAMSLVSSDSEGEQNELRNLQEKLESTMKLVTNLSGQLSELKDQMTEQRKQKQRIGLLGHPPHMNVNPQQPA
Description: Glycosides of the present invention, depending on their chemical structure, inhibit the binding of inositol-1,4,5-trisphosphate (IP3) to its receptor in microsomal membrane preparations. As IP3 is a messenger molecule playing distinguished role in the activation of different cells, interfering with this function can explain the anti-asthmatic effect of these polysulfated glycosides.
The IP3 antagonist effect of the polysulfated glycosides were determined using rat cerebellum membrane preparations according to Worley et al. (JBC 262, 12132, 1987).

[2] = read-out: IC 50 (μg/ml) Average ± SEM (n) (converted)

IC50 ([1]; read-out: Average IC50) [nM] | IC50 [1, 2] [nM] | melting point [°C] | SMILES
702 | 2020 | – | O=S(=O)(O)OC[C@@H](OS(=O)(=O)O)[C@@H](OS(=O)(=O)O)[C@H](OS(=O)(=O)O)[C@@H](CO[C@H]1OC[C@@H](OS(=O)(=O)O)[C@@H](OS(=O)(=O)O)[C@@H]1OS(=O)(=O)O)OS(=O)(=O)O [Example 16, 2,3,4,5,6-penta-O-sulfato-1-O-(2,3,4-tri-O-sulfato-α-D-arabinopyranosyl)-D-mannitol octa potassium salt]
– | – | > 220 | O=S(=O)(O)OC[C@H](OS(=O)(=O)O)[C@@H](O[C@@H]1O[C@H](COS(=O)(=O)O)[C@@H](OS(=O)(=O)O)[C@H](OS(=O)(=O)O)[C@H]1OS(=O)(=O)O)[C@H](OS(=O)(=O)O)[C@@H](COS(=O)(=O)O)OS(=O)(=O)O (as salt: potassium) [Example 4, 1,2,4,5,6-penta-O-sulfato-3-O-(2,3,4,6-tetra-β-sulfato-β-D-glucopyranosyl)-D-glucitol nona potassium salt]
– | – | > 220 | O=S(=O)(O)OC[C@H](OS(=O)(=O)O)[C@@H](OS(=O)(=O)O)[C@H](O[C@H]1O[C@H](COS(=O)(=O)O)[C@@H](OS(=O)(=O)O)[C@H](OS(=O)(=O)O)[C@H]1OS(=O)(=O)O)[C@@H](COS(=O)(=O)O)OS(=O)(=O)O (as salt: potassium) [Example 5, 1,2,3,5,6-penta-O-sulfato-4-O-(2,3,4,6-tetra-O-sulfato-α-D-glucopyranosyl)-D-glucitol nona potassium salt]
634 | 832 | – | O=S(=O)(O)OC[C@H]1O[C@@H](OC[C@@H](OS(=O)(=O)O)[C@@H](OS(=O)(=O)O)[C@H](OS(=O)(=O)O)[C@@H](CO[C@@H]2O[C@H](COS(=O)(=O)O)[C@@H](OS(=O)(=O)O)[C@H](OS(=O)(=O)O)[C@H]2OS(=O)(=O)O)OS(=O)(=O)O)[C@H](OS(=O)(=O)O)[C@@H](OS(=O)(=O)O)[C@@H]1OS(=O)(=O)O [Example 9, 2,3,4,5-tetra-O-sulfato-1,6-bis-O-(2,3,4,6-tetra-O-sulfato-β-D-glucopyranosyl)-D-mannitol dodeca potassium salt]
256 | 338 | – | O=S(=O)(O)OCC(OS(=O)(=O)O)C(OC1OC(COS(=O)(=O)O)C(OS(=O)(=O)O)C(OS(=O)(=O)O)C1OS(=O)(=O)O)C(OS(=O)(=O)O)C(COS(=O)(=O)O)OS(=O)(=O)O [Example 6, 1,2,3,5,6-penta-O-sulfato-4-O-(2,3,4,6-tetra-β-sulfato-β-D-glucopyranosyl)-D-glucitol nona potassium salt]
1410 | 1870 | – | O=S(=O)(O)OC[C@H](OS(=O)(=O)O)[C@@H](OS(=O)(=O)O)[C@H](OS(=O)(=O)O)[C@@H](CO[C@@H]1O[C@H](COS(=O)(=O)O)[C@@H](OS(=O)(=O)O)[C@H](OS(=O)(=O)O)[C@H]1OS(=O)(=O)O)OS(=O)(=O)O [Example 2, 1,2,3,4,5-penta-O-sulfato-6-O-(2,3,4,6-tetra-O-sulfato-β-D-glucopyranosyl)-D-glucitol nona potassium salt]
– | – | > 220 | O=S(=O)(O)OCC(OS(=O)(=O)O)C(OC1OC(COS(=O)(=O)O)C(OS(=O)(=O)O)C(OS(=O)(=O)O)C1OS(=O)(=O)O)C(OS(=O)(=O)O)C(COS(=O)(=O)O)OS(=O)(=O)O (as salt: potassium) [Example 6, 1,2,3,5,6-penta-O-sulfato-4-O-(2,3,4,6-tetra-β-sulfato-β-D-glucopyranosyl)-D-glucitol nona potassium salt]
256 | 338 | – | O=S(=O)(O)OC[C@H](OS(=O)(=O)O)[C@@H](OS(=O)(=O)O)[C@H](O[C@@H]1O[C@H](COS(=O)(=O)O)[C@H](OS(=O)(=O)O)[C@H](OS(=O)(=O)O)[C@H]1OS(=O)(=O)O)[C@@H](COS(=O)(=O)O)OS(=O)(=O)O [Example 7, 1,2,3,5,6-penta-O-sulfato-4-O-(2,3,4,6-tetra-O-sulfato-β-D-galactopyranosyl)-D-glucitol nona potassium salt]
100 | 131 | – | O=S(=O)(O)OC[C@H]1O[C@@H](OC[C@@H](OS(=O)(=O)O)[C@@H](OS(=O)(=O)O)[C@H](OS(=O)(=O)O)[C@@H](COS(=O)(=O)O)OS(=O)(=O)O)[C@H](OS(=O)(=O)O)[C@@H](OS(=O)(=O)O)[C@@H]1OS(=O)(=O)O [Example 1, 2,3,4,5,6-penta-O-sulfato-1-O-(2,3,4,6-tetra-O-sulfato-β-D-glucopyranosyl)-D-mannitol nona potassium salt]
800 | 1050 | – | O=S(=O)(O)OC[C@H]1O[C@@H](OC[C@H](OS(=O)(=O)O)[C@@H](O[C@@H]2O[C@H](COS(=O)(=O)O)[C@@H](OS(=O)(=O)O)[C@H](OS(=O)(=O)O)[C@H]2OS(=O)(=O)O)[C@H](OS(=O)(=O)O)[C@@H](COS(=O)(=O)O)OS(=O)(=O)O)[C@H](OS(=O)(=O)O)[C@@H](OS(=O)(=O)O)[C@@H]1OS(=O)(=O)O [Example 8, 2,4,5,6-tetra-O-sulfato-1,3-bis-O-(2,3,4,6-tetra-O-sulfato-β-D-glucopyranosyl)-D-glucitol dodeca potassium salt]
284 | 383 | – | O=S(=O)(O)OCC1OC(OCC2OC(OCC(OS(=O)(=O)O)C(OS(=O)(=O)O)C(OS(=O)(=O)O)C(COC3OC(COC4OC(COS(=O)(=O)O)C(OS(=O)(=O)O)C(OS(=O)(=O)O)C4OS(=O)(=O)O)C(OS(=O)(=O)O)C(OS(=O)(=O)O)C3OS(=O)(=O)O)OS(=O)(=O)O)C(OS(=O)(=O)O)C(OS(=O)(=O)O)C2OS(=O)(=O)O)C(OS(=O)(=O)O)C(OS(=O)(=O)O)C1OS(=O)(=O)O [Example 10, 2,3,4,5-tetra-O-sulfato-1,6-bis-O-(2,3,4,2′,3′,4′,6′-hepta-O-sulfato-β-gentiobiopyranosyl)-D-mannitol octadeca potassium salt]
6100 | 7830 | – | CO[C@@H]([C@H](OC)[C@@H](COS(=O)(=O)O)OS(=O)(=O)O)[C@@H](CO[C@@H]1O[C@H](CO[C@@H]2O[C@H](COS(=O)(=O)O)[C@@H](OS(=O)(=O)O)[C@H](OS(=O)(=O)O)[C@H]2OS(=O)(=O)O)[C@@H](OS(=O)(=O)O)[C@H](OS(=O)(=O)O)[C@H]1OS(=O)(=O)O)OS(=O)(=O)O [Example 14, 3,4-di-O-methyl-2,5,6-tri-O-sulfato-1-O-(2,3,4,2′,3′,4′,6′-hepta-O-sulfato-β-gentiobiopyranosyl)-D-mannitol deca potassium salt]
405 | 535 | – | O=S(=O)(O)OC[C@H]1O[C@@H](OC[C@H](OS(=O)(=O)O)[C@@H](OS(=O)(=O)O)[C@H](OS(=O)(=O)O)[C@@H](COS(=O)(=O)O)OS(=O)(=O)O)[C@H](OS(=O)(=O)O)[C@@H](OS(=O)(=O)O)[C@@H]1OS(=O)(=O)O [Example 3, 2,3,4,5,6-penta-O-sulfato-1-O-(2,3,4,6-tetra-O-sulfato-β-D-glucopyranosyl)-D-glucitol nona potassium salt]
263 | 347 | – | O=S(=O)(O)OC[C@H](OS(=O)(=O)O)[C@@H](OS(=O)(=O)O)[C@H](O[C@H]1O[C@H](COS(=O)(=O)O)[C@@H](OS(=O)(=O)O)[C@H](OS(=O)(=O)O)[C@H]1OS(=O)(=O)O)[C@@H](COS(=O)(=O)O)OS(=O)(=O)O [Example 5, 1,2,3,5,6-penta-O-sulfato-4-O-(2,3,4,6-tetra-O-sulfato-α-D-glucopyranosyl)-D-glucitol nona potassium salt]
